In patent publication US5650415A, “Quinoline compounds” (Sugen, Inc., priority 1995, dated 1997) one finds IC50 data, which are given here for 14 compounds.

For this test, the system named is HER2. Description: HER2 whole cell kinase ELISA (second HER2 column of Table 1). In kind it is cell-based. The settings on record: cell line not given. The source says:
The following examples illustrates the ability of the exemplary compounds to inhibit receptor tyrosine kinases, such as HER2 and/or EGFR. The following target cells were used for cellular kinase assays: NIH3T3 clone C7 (Honegger et al., supra) engineered to over-express human EGF receptor; NIH3T3 cells engineered to over-express a chimeric receptor containing the EGFR extracellular domain and the HER2 intracellular kinase domain; the human mammary carcinoma line BT474 (ATCC HTB2) expressing HER2; and the human glioblastoma line U1242 that expresses PDGFR-beta. Growth assays were carried out using human mammary epithelial SKBR3 (ATCC HTB30) cells (SKBR3 cells over-express HER2), SKOV3 (AT(D(D HTB77) human ovarian cancer cell line (SKOV3 cells also over-express HER2), A431 cells (A431 cells over-express EGFR) MCF7 human breast carcinoma cells, MCF7 cells overexpressing the HER2 kinase (MCF7-HER2), NIH3T3 cells, and NIH3T3 cells overexpressing the HER2 kinase (3T3-HER2. EGFR-HER2 Chimeric Recetor HER2 kinase activity (EGFR-3T3) in whole cells was measured as described below: HER2-ELISA HER2-BT474 assays measuring whole cell HER2 activity was carried out as described below: 1. The cell line used in this assay is BT-474 (ATCC HBT20), a human breast tumor cell line which expresses high levels of HER2 kinase. 2. BT-474 is grown in an incubator with 5% CO2 at 37° C. The growth media is RPMI+10% FBS+GMS-G (Gibco supplement)+Glutamine. 3. A monoclonal anti-HER2 antibody is used in ELISA. (a) Grow BT474 cells in tissue culture dishes (10 cm, Corning 25020-100) to 80-90% confluence and collect using Trypsin-EDTA (0.25%, GIBCO). (b) Resuspend the cells in fresh medium and transfer to 96-well tissue culture plates (Corning, 25806-96) at about 25,000-50,000 cells/well (100 μl/well). Incubate the cells in 5% CO2 at 37° C. overnight. (a) Coat the ELISA plate (Corning 25805-96) with anti HER2 antibody at 0.5 μg/well in 150 μl PBS overnight at 4.sunburst. C., and seal with parafilm. The antibody coated plates can be used up to 2 weeks, when stored at 4° C. (b) On the day of use, remove the coating solution, replace with 200 μl of Blocking Buffer, shake the plate, and then remove the blocking buffer and wash the plate just before adding lysate. (a) TBST the drugs in serum-free condition. Before adding drugs, the old media (b) Dilute drug stock (in 100% DMSO) 1:10 with RPMI, and transfer 10 μl/well of this solution to the cells to achieve a final drug DMSO concentration at 1%. Incubate the cells in 5% CO2 at 37° C. (d) After drug preincubation for two hours remove all the solution from the plate, transfer HNTG* 100 μl/well to the cells, and shake for 10 minutes. (e) Use a 12-channel pipette to scrape the cells from the plate, and homogenize the lysate by repeat aspiration and dispensing. Transfer all the lysate to the ELISA plate and shake for 1 hour. (f) Remove the lysate, wash the plate, add anti-pTyr (1:3,000 with TBST) 100 μl/well, and shake for 30 minutes. (g) Remove anti-pTyr, wash the plate, add goat anti-rabbit IgG conjugated antibody (1:5,000 with TBST) 100 μl/well, and shake for 30 minutes. (h) Remove anti-rabbit IgG antibody, wash the plate, and add fresh ABTS/H2 O2 (1.2 μl H2 O2 to 10 ml ABTS) 100 l/we1l to the plate to start color development, which usually takes 20 minutes. (i) Measure OD 410 nm, Dynatec MR5000.
Background: An ELISA detects its analyte on a solid surface through an enzyme-linked reagent.

Consider `CCOC(=O)c1cnc2c(F)ccc(F)c2c1Sc1cccc(C(F)(F)F)c1` [Compound A713, 3-Ethoxycarbonyl-5,8-difluoro-4-(3-trifluoromethylphenylmercapto)quinoline], for which the concentration for half-maximal inhibition (IC50) (usually the concentration that gives 50% inhibition) turned out to be 36 µM. For the compound `CCOC(=O)c1cnc2ccc(C(F)(F)F)cc2c1Nc1cccc(Br)c1` [Compound A716, 4-(3-Bromophenylamino)-3-ethoxycarbonyl-6-trifluoromethylquinoline], the IC50 is more than 100 µM. As to `CCOC(=O)c1cnc2ccc(C(F)(F)F)cc2c1NCc1ccccc1C(F)(F)F` [Compound A717, 3-Ethoxycarbonyl-4-(2-trifluoromethylbenzylamino)-6-trifluoromethylquinoline], the IC50 was more than 100 µM.

`CCOC(=O)c1cnc2ccc(C(F)(F)F)cc2c1NCc1cccc(C(F)(F)F)c1` [Compound A718, 3-Ethoxycarbonyl-4-(3-trifluoromethylbenzylamino)-6-trifluoromethylquinoline] displayed an IC50 of more than 50 µM. The compound `CCOC(=O)c1cnc2ccc(C(F)(F)F)cc2c1NCc1ccc(C(F)(F)F)cc1` [Compound A719, 3-Ethoxycarbonyl-4-(4-trifluoromethylbenzylamino)-6-trifluoromethylquinoline] displayed an IC50 of more than 100 µM.

In turn, `CCOC(=O)c1cnc2ccc(C(F)(F)F)cc2c1Nc1ccccc1C(F)(F)F` [Compound A720, 3-Ethoxycarbonyl-4-(2-trifluoromethylphenylamino)-6-trifluoromethylquinoline] came in with an IC50 of more than 100 µM. Turning to `CCOC(=O)c1cnc2ccc(C(F)(F)F)cc2c1Nc1cccc(C(F)(F)F)c1` [Compound A721, 3-Ethoxycarbonyl-4-(3-trifluoromethylphenylamino)-6-trifluoromethylquinoline], the half-maximal inhibitory concentration (IC50) was more than 100 µM. `CCOC(=O)c1cnc2ccc(C(F)(F)F)cc2c1Nc1ccc(C(F)(F)F)cc1` [Compound A722, 3-Ethoxycarbonyl-4-(4-trifluoromethylphenylamino)-6-trifluoromethylquinoline] registered an IC50 of more than 100 µM.

`CCOC(=O)c1cnc2ccc(C(F)(F)F)cc2c1Nc1ccccc1C#N` [Compound A723, 4-(2-Cyanophenylamino)-3-ethoxycarbonyl-6-trifluoromethylquinoline] had an IC50 of more than 10 µM. Regarding `CCOC(=O)c1cnc2ccc(C(F)(F)F)cc2c1Nc1ccc(C#N)cc1` [Compound A725, 4-(4-Cyanophenylamino)-3-ethoxycarbonyl-6-trifluoromethylquinoline], the 50% inhibitory concentration (IC50) was more than 100 µM.

As to `CCOC(=O)c1cnc2ccc(C(F)(F)F)cc2c1Nc1ccc(OC)c(OC)c1` [Compound A726, 3-Ethoxycarbonyl-4-(3,4-dimethoxyphenylamino)-6-trifluoromethylquinoline], the concentration for half-maximal inhibition (IC50) was more than 100 µM. In the case of `CCOC(=O)c1cnc2ccc(C(F)(F)F)cc2c1Nc1ccc(Br)cc1` [Compound A727, 4-(4-Bromophenylamino)-3-ethoxycarbonyl-6-trifluoromethylquinoline] it was more than 10 µM; in that of `CCOC(=O)c1cnc2ccc(C(F)(F)F)cc2c1Nc1cccc(Cl)c1` [Compound A728, 4-(3-Chlorophenylamino)-3-ethoxycarbonyl-6-trifluoromethylquinoline], more than 75 µM. `CCOC(=O)c1cnc2ccc(C(F)(F)F)cc2c1Nc1ccc(Cl)cc1` [Compound A729, 4-(4-Chlorophenylamino)-3-ethoxycarbonyl-6-trifluoromethylquinoline] registered an IC50 of more than 100 µM.
